The source of these data is US20240092784A1, “CONDENSED HETEROCYCLIC COMPOUND” (NISSAN CHEMICAL CORPORATION, priority 2020, published 2024).

Experiment [1] addresses T1, human SPR (Homo sapiens (Human), UniProt P35270). The experiment can be described thus: Evaluation Example 1: Measurement of human SPR inhibitory activity (sepiapterin absorbance at 420 nm). The format is biochemical. The conditions noted are these: 240 minutes at room temperature. The protocol:
Human SPR was prepared as described below. The full-length human SPR (1-261) cDNA was purchased from Eurofins Genomics as an artificially synthesized plasmid containing a DNA sequence optimized for the E. coli expression system so that the sequence of the expressed protein after transcription and translation matches the sequence described in UniprotKB (P35270).
Linearized insert and vector were prepared by PCR using primers designed for amplification of human SPR cDNA and primers designed to contain the thrombin recognition sequence of pET28a (Novagen) and a polyhistidine tag. Cloning was performed using In-Fusion (registered trademark) HD Cloning Kit (TaKaRa) to thereby construct a human SPR expression plasmid. The resultant human SPR expression plasmid was transformed into BL21 (DE3) competent cells (INVITROGEN).
The cells were inoculated into LB medium (1% triptone, 0.5% yeast extract, 1% sodium chloride) containing […] of kanamycin, and then precultured at 37° C. overnight. The precultured cells were inoculated into TB medium (1.2% triptone, 2.4% yeast extract, 9.4% dipotassium hydrogen phosphate, 2.2% potassium dihydrogen phosphate, 0.8% glycerin) containing […] of kanamycin, and the cultured at 37° C., to thereby induce SPR expression with 0.5 mM IPTG for four hours. After the induction, the cells were collected by centrifugation at 6,000 G for 30 minutes and washed with PBS, and the washing was discarded. The washed cells were suspended in buffer solution A (20 mM MES, pH 6.5, 100 mM sodium chloride, 1 mM DTT, 5 mM imidazole). Subsequently, the cell suspension was subjected to ultrasonic treatment to thereby homogenize the cells. The cell homogenate was clarified by centrifugation at 30,000 G for 60 minutes and then filtered with a […]. The filtrate was allowed to pass through HisTrapFF 5 mL column (GE Healthcare). The resin was washed with buffer A, and then gradient elution was performed with buffer B (20 mM MES, pH 6.5, 100 mM sodium chloride, 1 mM DTT, 500 mM imidazole). Thrombin was added to a fraction containing the SPR protein, and the mixture was dialyzed in buffer A overnight, to thereby cleave the tag. After removal of the thrombin by with Benzamidine Sepharose 4 FF (GE Healthcare), the resultant product was allowed to pass through the HisTrapFF 5 mL column, to thereby remove the tag, followed by concentration with Amicon Ultra 10,000 NMWL (Merck Millipore). The concentrate was purified by gel filtration using HiLoad 16/60 Superdex 75 pg (GE Healthcare) equilibrated with buffer C (20 mM MES, pH 6.5, 100 mM sodium chloride, 1 mM DTT). The fraction containing SPR protein was concentrated and then cryopreserved at −80° C.
Human SPR inhibitory activity was measured by using a 384-well low adsorption clear plate (Greiner) with buffer D containing 100 mM Tris-HCl (pH 7.5) (Thermo Fisher Scientific) and 0.01% bovine serum albumin (Sigma). A compound was diluted with DMSO to a concentration of 1 mM, and a 1 μL aliquot of the preparation was diluted with 250 μL of buffer D. The thus-diluted compound was dispensed into the 384-well plate at […]. Thereafter, human SPR was diluted with buffer D to 200 ng/mL and then dispensed into the 384-well plate at 20 μL/well. Subsequently, 40 μL of ultrapure water containing 120 μM Sepiapterin (WuXi AppTec) and 120 μM NADPH (Nacalai) was added to each well, and mixed with a vortex mixer, to thereby initiate the reaction. The reaction mixture was incubated at room temperature for 240 minutes, and the reaction was terminated by addition of 10 μL of ultrapure water containing 2% formic acid (Nacalai). In order to determine the amount of sepiapterin after termination of the reaction, the absorbance at 420 nm was measured by applying the 384-well plate to EnSpire multimode plate reader (Perkin Elmer). The percent inhibition (%) of human SPR by the test compound was calculated by the following formula. […]

Experiment [2] concerns the target T1, human SPR. Briefly: Evaluation Example 2: Measurement of human SPR inhibitory activity (seven concentrations, sepiapterin absorbance at 420 nm). The format is biochemical. The conditions noted are these: Evaluation Example 2, seven concentrations 0.14 nM to 100 nM, 240 minutes at room temperature, read-out: IC50. The method, boiled down: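 Reactions ran 240 min at room temperature in 100 mM Tris-HCl pH 7.5 with 0.01% BSA. They contained tag-cleaved, E. coli-expressed full-length human SPR (diluted to 150 ng/mL), seven compound concentrations from 0.14 to 100 nM, and sepiapterin/NADPH added as a 120 μM/160 μM solution. Inhibition was calculated from sepiapterin absorbance at 420 nm.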

T1 sequence (P35270 whole entry): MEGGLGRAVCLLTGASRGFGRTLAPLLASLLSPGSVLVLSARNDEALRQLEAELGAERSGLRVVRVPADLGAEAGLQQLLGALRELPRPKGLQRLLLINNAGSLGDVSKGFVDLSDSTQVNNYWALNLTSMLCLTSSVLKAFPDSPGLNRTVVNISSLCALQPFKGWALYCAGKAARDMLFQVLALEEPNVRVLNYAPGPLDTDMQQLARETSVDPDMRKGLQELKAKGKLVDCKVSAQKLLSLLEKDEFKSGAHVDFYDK

As for `CC(C)(C)Cn1c(=O)c(C(=O)NC2CC2)c(O)n2nc(-c3cccnc3N)cc12` [Synthesis Example 14, 2-(2-Aminopyridin-3-yl)-N-cyclopropyl-7-hydroxy-4-neopentyl-5-oxo-4,5-dihydropyrazolo[1,5-a]pyrimidine-6-carboxamide], the half-maximal inhibitory concentration (IC50) (usually the point on the concentration scale where inhibition reaches its midpoint) is less than 1000 nM against human SPR [1] and 1.19 nM at human SPR [2].

As to `CC(C)(C)Cn1c(=O)c(C(=O)NC2CC2)c(O)n2nc(C(N)=O)cc12` [Synthesis Example 33, N6-Cyclopropyl-7-hydroxy-4-neopentyl-5-oxo-4,5-dihydropyrazolo[1,5-a]pyrimidine-2,6-dicarboxamide], the IC50 against human SPR [1] is less than 1000 nM; on human SPR [2] it was 0.65 nM.

With `CC(C)(C)Cn1c(=O)c(C(=O)NC2CC2)c(O)n2nc(Nc3cnc(C(N)=O)cn3)cc12` [Synthesis Example 21, 2-((5-Carbamoylpyrazin-2-yl)amino)-N-cyclopropyl-7-hydroxy-4-neopentyl-5-oxo-4,5-dihydropyrazolo[1,5-a]pyrimidine-6-carboxamide], the results for the IC50 at human SPR [1] and at human SPR [2] were less than 1000 nM and 0.96 nM, respectively.

On to `CC(C)(C)Cn1c(=O)c(C(=O)NC2CC2)c(O)n2nc(Nc3ccncn3)cc12` [Synthesis Example 12, N-Cyclopropyl-7-hydroxy-4-neopentyl-5-oxo-2-(pyrimidin-4-ylamino)-4,5-dihydropyrazolo[1,5-a]pyrimidine-6-carboxamide], for which the IC50 is less than 1000 nM against human SPR [1] and 1.41 nM at human SPR [2].

Consider `COc1cnc(Nc2cc3n(CC(C)(C)C)c(=O)c(C(=O)NC4CC4)c(O)n3n2)cn1` [Synthesis Example 16, N-Cyclopropyl-7-hydroxy-2-((5-methoxypyrazin-2-yl)amino)-4-neopentyl-5-oxo-4,5-dihydropyrazolo[1,5-a]pyrimidine-6-carboxamide], for which the IC50 against human SPR [1] is less than 1000 nM; on human SPR [2], 1.96 nM.

Take `CC(C)(C)Cn1c(=O)c(C(=O)NC2CC2)c(O)n2nc(Nc3cnc(C(F)(F)F)cn3)cc12` [Synthesis Example 15, N-Cyclopropyl-7-hydroxy-4-neopentyl-5-oxo-2-((5-(trifluoromethyl)pyrazin-2-yl)amino)-4,5-dihydropyrazolo[1,5-a]pyrimidine-6-carboxamide]: the IC50 was less than 1000 nM against human SPR [1] and 1.61 nM at human SPR [2].

Regarding `CC(C)Cn1c(=O)c(C(=O)NC2CC2)c(O)n2ncc(/C=C/C(=O)N3CCOCC3)c12` [Synthesis Example 10, (E)-N-Cyclopropyl-7-hydroxy-4-isobutyl-3-(3-morpholino-3-oxoprop-1-en-1-yl)-5-oxo-4,5-dihydropyrazolo[1,5-a]pyrimidine-6-carboxamide], the half-maximal inhibitory concentration (IC50) against human SPR [1] is less than 1000 nM; at human SPR [2] it was 0.68 nM.

Consider `CC(C)(C)Cn1c(=O)c(C(=O)NC2CC2)c(O)n2nc(N)cc12` [Synthesis Example 18, 2-Amino-N-cyclopropyl-7-hydroxy-4-neopentyl-5-oxo-4,5-dihydropyrazolo[1,5-a]pyrimidine-6-carboxamide], for which the IC50 is less than 1000 nM against human SPR [1] and 0.89 nM at human SPR [2].

For `CC(C)(C)Cn1c(=O)c(C(=O)NC2CC2)c(O)n2nc(NC(N)=O)cc12` [Synthesis Example 32, N-Cyclopropyl-7-hydroxy-4-neopentyl-5-oxo-2-ureido-4,5-dihydropyrazolo[1,5-a]pyrimidine-6-carboxamide], the 50% inhibitory concentration (IC50) against human SPR [1] was less than 1000 nM; on human SPR [2] it was 3.08 nM.

For `COc1cncc(Nc2cc3n(CC(C)(C)C)c(=O)c(C(=O)NC4CC4)c(O)n3n2)n1` [Synthesis Example 17, N-Cyclopropyl-7-hydroxy-2-((6-methoxypyrazin-2-yl)amino)-4-neopentyl-5-oxo-4,5-dihydropyrazolo[1,5-a]pyrimidine-6-carboxamide], the IC50 at human SPR [1] was less than 1000 nM; at human SPR [2] it was 0.76 nM.

Turning to `CC(C)(C)Cn1c(=O)c(C(=O)NC2CC2)c(O)n2nc(Nc3cnccn3)cc12` [Synthesis Example 13, N-Cyclopropyl-7-hydroxy-4-neopentyl-5-oxo-2-(pyrazin-2-ylamino)-4,5-dihydropyrazolo[1,5-a]pyrimidine-6-carboxamide], the IC50 on human SPR [1] is less than 1000 nM; at human SPR [2] it was 1.43 nM.
